Data as given in patent publication US20190169218A1, “AMPHIPATHIC COMPOUND HAVING NOVEL PENTA-SACCHARIDE HYDROPHILIC GROUP AND USE THEREOF” (Industry-University Cooperation Foundation Hanyang …, priority 2016, published 2019).

How the values were obtained:
[1] = critical micelle concentration (CMC) by hydrophobic fluorescent staining with diphenylhexatriene (DPH); assay type: physicochemical
Summary of the method: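 CMC determined by hydrophobic fluorescent staining with diphenylhexatriene (DPH); micelle hydrodynamic radius measured separately by dynamic light scattering at 1.0 wt %, with DDM as reference detergent.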

[2] = biological target: T1, human β2 adrenergic receptor (β2AR) (Homo sapiens, UniProt P07550); assay: negative staining electron microscopy (EM) of purified β2AR
T1 construct: Flag; made in house
T1 sequence (P07550 whole entry): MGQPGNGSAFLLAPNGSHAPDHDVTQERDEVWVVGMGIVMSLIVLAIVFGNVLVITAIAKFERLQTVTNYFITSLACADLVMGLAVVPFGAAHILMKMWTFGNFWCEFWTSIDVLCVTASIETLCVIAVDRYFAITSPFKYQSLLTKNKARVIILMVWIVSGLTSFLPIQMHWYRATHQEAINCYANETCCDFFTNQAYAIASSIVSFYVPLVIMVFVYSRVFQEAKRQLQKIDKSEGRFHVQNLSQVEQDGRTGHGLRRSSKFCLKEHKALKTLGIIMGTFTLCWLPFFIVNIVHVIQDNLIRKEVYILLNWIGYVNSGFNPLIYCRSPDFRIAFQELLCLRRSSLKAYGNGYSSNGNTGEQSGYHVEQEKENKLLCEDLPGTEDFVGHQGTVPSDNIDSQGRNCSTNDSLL
Procedure: Electron microscopy (EM) analysis was performed on β2ARs solubilized in PSAs and PSEs.
Specifically, electron microscopy (EM) analysis was performed as follows. Samples were prepared using a conventional negative staining protocol (see Peisley, A. et al., G Protein-Coupled Receptors in Drug Discovery: Methods and Protocols, Methods in Molecular Biology, 1335, 29-38 (2015)). Briefly, 3 μL of β2ARs purified in DDM or the novel amphipathic compounds (PSA-C11, PSE-C11 and PSE-C13) was added into a glow-discharged carbon-coated grid by pipetting and stained with 1% (w/v) uranyl formate. Imaging was performed by operating a Morgagni 268 (D) transmission electron microscope (FEI Company) at 100 kV at room temperature. Images were recorded with an Orius SC200W CCD camera (Gatan Inc.) at a 30,416×magnification.

[3] = biological target: T1, human β2 adrenergic receptor (β2AR); assay: bimane fluorescence spectrum of mBBr-β2AR solubilized in amphipathic compounds; settings: 0.1 wt % compound
Procedure: The structural stability of monobromobimane-labeled β2ARs (mBBr-β2ARs) solubilized in PSAs and PSEs was evaluated in the presence of a high-affinity agonist BI (BI-167107).
Specifically, monobromobimane (mBBr)-labeled β2ARs (mainly labeled on Cys265) was used to measure changes in a fluorescence spectrum induced by a local structural change near transmembrane helix 6 (TM6) (see Yao, X. et al., Nat. Chem. Biol. 2006, 2, 417-422.). 0.5 μL of BI (agonist)-bound mBBr-β2ARs dissolved at a concentration of […] in 0.1 wt % DDM was diluted with 500 μL of a buffer solution containing 0.1 wt % of each of the novel amphipathic compounds (PSA-C11, PSE-C11 and PSE-C13). After incubation of the protein samples for 30 minutes, the spectrum of mBBr was measured and compared with the spectrum of mBBr-labeled receptors dissolved in 0.1 wt % DDM. The 370 nm excitation wavelength was used for bimane fluorescence, and the emission spectra were measured at 430 to 510 nm using a Spex FluoroMax-3 spectrometer (Jobin Yvon Inc.) at 0.5 nm s^−1 in 1-nm units, and the photon counting mode was set to a 4-nm emission bandwidth pass. mBBr-labeled β2ARs dissolved in DDM were used as a positive control group. Data is representative of three independent experiments.
The structural change and structural stability of mBBr-β2ARs by PSAs/PSEs and DDM according the presence or absence of a full agonist (isoproterenol, ISO) or the combination of ISO and a G-protein were measured. It is well known that a full agonist (e.g., BI) and the binding of a Gs-protein are simultaneously required for full activation of receptors (see Rasmussen, S. G. F. et al., Nature 2011, 469, 175-180.).
Specifically, G protein coupling experiments were performed using the following method. 0.5 μL of non-ligand mBBr-labeled receptors at a concentration of 50 μM was diluted with 500 μL of a buffer solution containing a 0.1 wt % amphipathic compound at room temperature for 15 minutes. After dilution, a dilution containing the receptors at a final concentration of 50 nM was obtained. 2 μM isoproterenol (ISO) was added to the diluted solution, and the solution was incubated for an additional 15 minutes. 250 nM Gs-protein was additionally added to the solution, and then the protein samples included in the solution were incubated at room temperature for an additional 20 minutes. The 370 nm excitation wavelength was used for bimane fluorescence, and the emission spectra were measured at 430 to 510 nm using a Spex FluoroMax-3 spectrometer (Jobin Yvon Inc.) at 0.5 nm s^−1 in 1-nm units, and the photon counting mode was set to a 4-nm emission bandwidth pass. The same experiment was repeated using 0.1 wt % DDM, which was used as a positive control. Data is representative of three independent experiments.

[4] = in the presence of agonist BI (BI-167107)
[5] = in the presence of full agonist isoproterenol (ISO)

Structure (SMILES)	CMC [1] [mM]	CMC (wt %) [1] [wt %]	agglutinated proteins in negative staining EM images of β2AR [2]	bimane fluorescence spectrum of mBBr-β2AR [3, 4]	bimane fluorescence spectrum of mBBr-β2AR [3, 5]
CCCCCCCCCCCCO[C@@H]1O[C@H](CO)[C@@H](O[C@H]2O[C@H](CO)[C@@H](O)[C@H](O)[C@H]2O)[C@H](O)[C@H]1O [DDM, n-dodecyl-β-D-maltopyranoside, reference compound]	~0.17	~0.0087	many agglutinated proteins were observed	–	–
CCCCCCCCCCCC(CCCCCCCCCCC)CO[C@@H]1OC(CO[C@@H]2OC(CO)[C@@H](O)C(O)C2O)[C@@H](O[C@@H]2OC(CO)[C@@H](O)C(O)C2O)C(O[C@@H]2OC(CO)[C@@H](O)C(O)C2O)C1O[C@@H]1OC(CO)[C@@H](O)C(O)C1O (stereo partly shown) [PSA-C11]	~0.007	~0.0008	the agglutinated proteins were hardly observed	very similar to that obtained from the receptors dissolved in DDM	spectra similar to the receptor solubilized by DDM
CCCCCCCCCCCOCC(COCCCCCCCCCCC)O[C@@H]1OC(CO[C@@H]2OC(CO)[C@@H](O)C(O)C2O)[C@@H](O[C@@H]2OC(CO)[C@@H](O)C(O)C2O)C(O[C@@H]2OC(CO)[C@@H](O)C(O)C2O)C1O[C@@H]1OC(CO)[C@@H](O)C(O)C1O (stereo partly shown) [PSE-C11]	~0.004	~0.0005	the agglutinated proteins were hardly observed	very similar to that obtained from the receptors dissolved in DDM	spectra similar to the receptor solubilized by DDM
CCCCCCCCCCCCCOCC(COCCCCCCCCCCCCC)O[C@@H]1OC(CO[C@@H]2OC(CO)[C@@H](O)C(O)C2O)[C@@H](O[C@@H]2OC(CO)[C@@H](O)C(O)C2O)C(O[C@@H]2OC(CO)[C@@H](O)C(O)C2O)C1O[C@@H]1OC(CO)[C@@H](O)C(O)C1O (stereo partly shown) [PSE-C13]	~0.001	~0.0001	the amount of the agglutinated proteins was small	somewhat different bimane fluorescence spectrum compared to the receptors dissolved in DDM	–
CCCCCCCCOCC(COCCCCCCCC)(COCCCCCCCC)CO[C@@H]1OC(CO[C@@H]2OC(CO)[C@@H](O)C(O)C2O)[C@@H](O[C@@H]2OC(CO)[C@@H](O)C(O)C2O)C(O[C@@H]2OC(CO)[C@@H](O)C(O)C2O)C1O[C@@H]1OC(CO)[C@@H](O)C(O)C1O (stereo partly shown) [TPS-E8]	~0.007	~0.0009	–	–	–
